The test system of test [1] is insulin receptor (IR); insulin-induced IR-Rluc/IRS1-YFP BRET in HEK293 cells. Briefly: BRET assay of IR activation, peptides combined with insulin. Type of test: cell-based, human. The settings on record: for insulin-induced BRET, % of insulin's response in the vehicle, Average: Average of Experiments 1-7; for insulin-induced BRET, % of insulin's response in the vehicle, Average / insulin-induced BRET, % of insulin's response in the vehicle / % of maximal BRET (insulin-induced): 1 μM insulin + 0.1 mg/ml peptide; for insulin-induced BRET, % of insulin's response in the vehicle, Average / insulin-induced BRET, % of insulin's response in the vehicle: HEK293, minimal data set for Figure 2; for % of maximal BRET (insulin-induced) / profile on insulin-dependent BRET response in combined treatment (in words): HEK293 cells; for % of maximal BRET (insulin-induced): 1 hour, 37°C, % of insulin's response in the vehicle taken as 100%, mean ± SD of five to seven independent experiments in triplicate; for profile on insulin-dependent BRET response in combined treatment (in words): 0.1 mg/ml peptide + 1 μM insulin, compared to insulin alone (Vehicle). On the procedure: (§1) HepG2 and HEK293 cells were maintained at 37°C, 5% CO2 in complete RPMI and Dulbecco’s modified Eagle’s medium (DMEM), respectively, containing 0.3 mg/ml glutamine, 100 IU/ml penicillin, and 100 µg/ml streptomycin) supplemented with 10% fetal calf serum (Gibco, Carlsbad, CA, USA). The transient transfection in HEK293 cells was carried out in 75 cm flask containing 10^7 cells using Lipofectamine 2000 and 5 µg of IR-Rluc and 5 µg of IRS1-YFP (for BRET and phosphorylation experiments) as previously described. All assays were performed 48 hours post-transfection.
(§2) BRET technology was used for IR activation and its interaction with IRS1 as previously described. […] Following treatments, 10 μl of Coelenterazine h was added to a final concentration of 5 µ M and BRET measurements were carried out using the Tristar 2 multi-label plate reader (Berthold, Germany), allowing luminescence recording and signal integration at 480 nm and 540 nm.
For BRET, the data were normalized by taking as 100% of the maximal insulin-induced BRET signal in the vehicle and analyzed using GraphPad Prism software (San Diego, CA, USA). Statistical analyses were performed statistical significance between the different treatments and conditions as indicated in the figures and tables and their captions. […] The significance is indicated in the figures by stars (****p-value < 0.0001, ***p-value < 0.001, ** p-value < 0.01, * p-value < 0.05), and the absence of stars means non-significant (p-value > 0.05). However, the two-way ANOVA was used for multiple comparisons to determine the statistical significance between the different peptides when compared to each other in the different assays as described in the tables. In this case, the different letters indicate statistically significant effects (p-value < 0.05), while the same letters indicate no significant difference between the different treatments compared to each other.
Background: In BRET a luciferase serves as donor, and the signal depends on an acceptor being close.

In test [2] the test system is HepG2 cells. Description: Glucose uptake assay (Glucose Uptake-Glo) in HepG2 cells. Type of test: cell-based, human. The settings on record: 1 hour, 37°C; for glucose uptake, specific luminescence signal, Average: Average of Experiments 1-5, HepG2, 0.1 mg/ml peptide or 1 μM insulin, minimal data set for Figure 5; for % of glucose uptake: HepG2 cells, 0.1 mg/ml peptide or 1 μM insulin, % of insulin's response taken as 100%, mean ± SD of five independent experiments in triplicate. The method, then: Glucose uptake in HepG2 cells was carried out using Glucose Uptake-Glo Assay (Promega). For this, cells seeded in a 96-well white plate (50,000 cells/well) were first washed with PBS and starved in phenol red-, glucose-, and serum-free medium (Dulbecco’s modified Eagle’s medium containing 0.01 mM HEPES, 0.3 mg/ml glutamine, 100 IU/ml penicillin, and 100 µg/ml streptomycin). […] The treatment was removed, and the cells were washed once with PBS and then incubated with 50 μL/well of freshly prepared 2-deoxyglucose (500 μM) for 10 minutes at room temperature. The uptake process was stopped and neutralized, followed by the addition of 50 μl/well of 2-deoxyglucose-6-phosphate (2DG6P) detection reagent and incubation for 15-60 minutes at room temperature. The glucose-6-phosphate dehydrogenase (G6PDH) oxidizes 2DG6P to 6-phosphodeoxygluconate (6PDG) and reduces NADP + to NADPH. The reductase uses NADPH to convert the proluciferin to luciferin, which is then used by Ultra-Glo™ recombinant luciferase to produce luminescence. This luminescence, proportional to the amount of 2-deoxyglucose transported inside the cells upon treatment, was then measured using a 0.3–1 second integration on GloMax® Discover luminometer according to Glucose Uptake-Glo™ protocol.

For test [3], the target named is T1, insulin receptor (IR); interaction of IR-Rluc with IRS1-YFP in HEK293 cells (Homo sapiens, UniProt P06213).
T1 construct: expressed in transfected cells; host or cells: HEK293 cells, transient co-transfection; plasmids provided by Dr. Tarik Issad (Cochin Institute, Paris)
T1 sequence (P06213 28-758 limits assumed): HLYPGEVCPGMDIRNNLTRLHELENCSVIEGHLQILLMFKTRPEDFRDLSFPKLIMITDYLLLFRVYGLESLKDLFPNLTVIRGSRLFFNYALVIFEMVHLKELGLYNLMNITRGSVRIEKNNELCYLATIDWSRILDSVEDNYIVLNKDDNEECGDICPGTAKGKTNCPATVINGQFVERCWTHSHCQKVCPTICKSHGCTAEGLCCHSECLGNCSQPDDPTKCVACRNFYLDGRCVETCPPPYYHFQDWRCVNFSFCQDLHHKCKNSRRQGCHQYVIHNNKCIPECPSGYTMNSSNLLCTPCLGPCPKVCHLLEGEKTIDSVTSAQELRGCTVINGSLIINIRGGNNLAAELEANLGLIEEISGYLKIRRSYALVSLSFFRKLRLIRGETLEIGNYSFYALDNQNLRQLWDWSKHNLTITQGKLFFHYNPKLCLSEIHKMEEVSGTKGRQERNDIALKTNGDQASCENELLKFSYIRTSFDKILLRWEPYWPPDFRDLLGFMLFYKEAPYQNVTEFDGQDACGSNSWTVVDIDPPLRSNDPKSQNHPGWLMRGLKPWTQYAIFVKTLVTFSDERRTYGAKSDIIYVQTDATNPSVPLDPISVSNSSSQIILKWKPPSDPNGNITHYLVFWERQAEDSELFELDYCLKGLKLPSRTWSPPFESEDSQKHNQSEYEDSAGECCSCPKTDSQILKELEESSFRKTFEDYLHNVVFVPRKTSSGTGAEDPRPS
T1 sequence (P06213 763-1382 limits assumed): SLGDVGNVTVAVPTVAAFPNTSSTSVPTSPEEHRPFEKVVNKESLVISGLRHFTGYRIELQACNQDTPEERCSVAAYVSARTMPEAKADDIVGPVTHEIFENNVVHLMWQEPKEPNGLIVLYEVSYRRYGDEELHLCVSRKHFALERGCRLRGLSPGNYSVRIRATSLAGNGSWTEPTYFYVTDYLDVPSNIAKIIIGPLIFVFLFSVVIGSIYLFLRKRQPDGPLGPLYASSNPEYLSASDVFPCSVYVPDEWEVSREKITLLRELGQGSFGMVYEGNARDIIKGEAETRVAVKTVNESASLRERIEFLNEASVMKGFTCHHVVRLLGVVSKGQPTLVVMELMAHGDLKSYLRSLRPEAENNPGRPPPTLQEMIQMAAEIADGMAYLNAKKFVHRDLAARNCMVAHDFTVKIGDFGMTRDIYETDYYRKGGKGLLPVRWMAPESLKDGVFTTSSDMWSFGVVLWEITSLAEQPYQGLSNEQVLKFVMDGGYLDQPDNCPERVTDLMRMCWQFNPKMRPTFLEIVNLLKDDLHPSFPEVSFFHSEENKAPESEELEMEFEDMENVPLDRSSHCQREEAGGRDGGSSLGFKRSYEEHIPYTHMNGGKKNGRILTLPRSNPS
Description: BRET assay of IR activation (IR-Rluc/IRS1-YFP), single treatment, dose-response. Type of test: cell-based. Particulars: HEK293, 1 hour, 37°C, minimal data set for Figure 1, average. On the procedure:
as §1, §2
Statistical analyses were performed statistical significance between the different treatments and conditions as indicated in the figures and tables and their captions. […] The significance is indicated in the figures by stars (****p-value < 0.0001, ***p-value < 0.001, ** p-value < 0.01, * p-value < 0.05), and the absence of stars means non-significant (p-value > 0.05). However, the two-way ANOVA was used for multiple comparisons to determine the statistical significance between the different peptides when compared to each other in the different assays as described in the tables.

The mark [4] stands for this setting: HEK293, read-out: BRET, % of the maximal response of insulin, Average, peptide 0.001 mg/ml.
Setting [5] is: HEK293, read-out: BRET, % of the maximal response of insulin, Average, peptide 0.005 mg/ml.
The mark [6] stands for this setting: HEK293, read-out: BRET, % of the maximal response of insulin, Average, peptide 0.01 mg/ml.
The mark [7] stands for this setting: HEK293, read-out: BRET, % of the maximal response of insulin, Average, peptide 0.05 mg/ml.
Where [8] appears, read: HEK293, read-out: BRET, % of the maximal response of insulin, Average, peptide 0.1 mg/ml.
Setting [9] is: HEK293, read-out: BRET, % of the maximal response of insulin, Average, peptide 0.5 mg/ml.
The mark [10] stands for this setting: HEK293, read-out: BRET, % of the maximal response of insulin, Average, peptide 1 mg/ml.

Read-outs that look alike come from different tables or passages of the source. Marks after values point to notes of the source that are not given here. Residues, ends and D or L forms follow the SMILES beside them.

`CC(C)C[C@H](NC(=O)[C@H](Cc1ccccc1)NC(=O)[C@@H]1CCCN1C(=O)[C@H](CCCNC(=N)N)NC(=O)[C@@H](N)CC(C)C)C(=O)O` [Peptide P1, LRPFL] (H-LRPFL-OH): the “insulin-induced BRET, % of insulin's response in the vehicle, Average” value (“insulin-induced BRET, % … Average” below) in test [1] is given as 103.6. Besides, the “insulin-induced BRET, % of insulin's response in the vehicle” value in test [1] (Experiment 1) came to 73.6; in test [1] (Experiment 2) it was 47.0; in test [1] (Experiment 3), 66.9; in test [1] (Experiment 4), 125.9; in test [1] (Experiment 5) it was 98.2; in test [1] (Experiment 6), 190.8. Moreover, the “insulin-induced BRET, % of insulin's response in the vehicle” value in test [1] (Experiment 7) came to 122.6. Moreover, in test [1], the “% of maximal BRET (insulin-induced)” value is 104 ± 18^a %. In test [1], the “profile on insulin-dependent BRET response in combined treatment (in words)” value (“profile” for short) is recorded as “non-efficient”. The “glucose uptake, specific luminescence signal, Average” value (“glucose uptake … Average” below) in test [2] came to 1669300. The “% of glucose uptake” value in test [2] was 66 ± 18^b %. Further, the Emax in test [3] (setting [4]) was 10.1%; in test [3] (setting [5]), 16.5%; in test [3] (setting [6]) it was 37.6%; in test [3] (setting [7]) it was 43%; in test [3] (setting [8]) it was 58.5%; in test [3] (setting [9]), 56.7%. The Emax in test [3] (setting [10]) is 55.3%.

For the compound `CC(C)C[C@H](N)C(=O)N1CCC[C@H]1C(=O)N[C@H](C(=O)N1CCC[C@H]1C(=O)N[C@@H](CCC(N)=O)C(=O)O)C(C)C` [Peptide P3, LPVPQ] (H-LPVPQ-OH; N-terminus and C-terminus assumed), the “insulin-induced BRET, % … Average” value in test [1] amounted to 110.8. For the same compound, the “insulin-induced BRET, % of insulin's response in the vehicle” value in test [1] (Experiment 1) turned out to be 81.5; in test [1] (Experiment 2), 130.9; in test [1] (Experiment 3), 81.8; in test [1] (Experiment 4), 135.0; in test [1] (Experiment 5) it was 93.0; in test [1] (Experiment 6), 152.3. Further, in test [1] (Experiment 7), the “insulin-induced BRET, % of insulin's response in the vehicle” value worked out at 100.8. Besides, the “% of maximal BRET (insulin-induced)” value in test [1] is reported as 111 ± 11^a %. In addition, the “profile” value in test [1] was “non-efficient”. The “glucose uptake … Average” value in test [2] was 1788200. For the same compound, the “% of glucose uptake” value in test [2] is listed as 71 ± 12^b %. For the same compound, the Emax in test [3] (setting [4]) worked out at 6%; in test [3] (setting [5]), 11%; in test [3] (setting [6]) it was 19.1%; in test [3] (setting [7]), 48.8%; in test [3] (setting [8]), 47.7%; in test [3] (setting [9]), 46.3%. For the same compound, in test [3] (setting [10]), the Emax was 41.4%.

Regarding `CC[C@H](C)[C@H](NC(=O)[C@@H]1CCCN1C(=O)[C@@H](N)Cc1ccc(O)cc1)C(=O)O` [Peptide P9, YPI] (H-Tyr-Pro-Ile-OH; N-terminus and C-terminus assumed), the “insulin-induced BRET, % … Average” value in test [1] came to 108.5. Moreover, the “insulin-induced BRET, % of insulin's response in the vehicle” value in test [1] (Experiment 1) came to 96.6; in test [1] (Experiment 2), 93.8; in test [1] (Experiment 3), 107.9; in test [1] (Experiment 4), 136.4; in test [1] (Experiment 5), 113.3; in test [1] (Experiment 6) it was 127.9. The “insulin-induced BRET, % of insulin's response in the vehicle” value in test [1] (Experiment 7) is recorded as 83.8. Further, in test [1], the “% of maximal BRET (insulin-induced)” value is 109 ± 7^a %. For the same compound, in test [1], the “profile” value is on record as “non-efficient”. Besides, the “glucose uptake … Average” value in test [2] worked out at 2361900. The Emax was found to be 3.3% in test [3] (setting [4]); 14.7% in test [3] (setting [5]); 24.7% in test [3] (setting [6]); 29.3% in test [3] (setting [7]); 40.2% in test [3] (setting [8]); 39.3% in test [3] (setting [9]). For the same compound, the Emax in test [3] (setting [10]) was 31.7%.

With Human insulin [reference compound], the “% of maximal BRET (insulin-induced)” value in test [1] is on record as 100^a %. Further, in test [2], the “glucose uptake … Average” value was determined as 2522500 and the “% of glucose uptake” value is listed as 100^a %.

Source of the values: PMC11952234, “Functional profiling of synthetic camel milk-derived peptides with implication in glucose transport and diabetes” (PLOS One, 2025).
